| Structure (SMILES) | melting point [°C] |
| --- | --- |
| CCn1cc(-c2ccccc2)c(=O)c(-c2cccc(C)c2)c1 | 87 to 89 |
| Cc1ccc(C(C)Oc2cnn(C(C)(C)C)c(=O)c2Cl)cc1 (stereo not given) | 104 to 106 |
| N#CCNC(=O)C1(NC(=O)c2ccc(N3CCNCC3)cc2)CCCCC1 | 206 to 210 |
| CCCCC(Cn1cncn1)(C(=O)O)c1ccccc1OC (stereo not given) | 198 |
| CC(C)c1cccc(C(C)C)c1OCC(N)=O | 136 to 138 |
| COc1ccc(CCN(C)CCOc2ccc(NC(=O)c3cccc4c(=O)c5ccccc5n(C)c34)cc2)cc1OC | 139 |
| CCOC(=O)/C=C/c1ccc(-c2nc3c(=O)n(CC4CCCCC4)c(=O)n(CC4CCCCC4)c3[nH]2)cc1 | > 300 |
| Cn1cc(-c2cc3cccnc3[nH]2)c2cc(C(=O)NC(C)(C)CO)ccc21 | 161 to 162 |
| CC(O)(CCN1CCOCC1)c1ccc(-c2ccc(Br)cc2)cc1 (stereo not given) | 97 to 99 |
| CCCc1c(C(=O)C(C)C)c2ccc(C(N)=O)cc2n1Cc1ccccc1Cl | 85 to 86 |
| Cc1cc(C)cc(OCC(C)O)c1 (stereo not given) | 48.7 to 49.5 |
| CCCCCCCCCCCCCCCCCCOc1cc2ccccc2cc1O | 60 to 62 |
| OCCc1c[nH]c2ccc(F)cc12 | 59 to 61 |
| O=C(NC12CC3CC(CC(C3)C1)C2)c1cc(O)c(O)c([N+](=O)[O-])c1 | 207 to 208 |
| Cc1cc(O)cc2c1CCC2(C)C | 80 to 81 |
| COC(=O)c1ccc(CBr)c2occc12 | 73 to 80 |
| CCCCOC(=O)[C@H]1CN(c2ccc3c(c2)sc(=O)n3C)C(=O)O1 | 85 to 87 |
| N#Cc1ccc2c(c1)C(c1ncnc3c1cnn3C1CCCC1)C(=O)N2 (stereo not given) | > 300 |
| COc1cc(N)c(Cl)cc1C(=O)NCC1CCN(CCCOCc2ccccc2)CC1 | 82 to 83 |
| CCOc1ccc(C(=O)NCc2ccc3c(c2)C(=O)N(C2(C)CCC(=O)NC2=O)C3=O)nn1 (stereo not given) | 126 to 128 |
| c1ccc2cc(Cn3c(-c4ccc5c(c4)OCO5)nc4ccccc43)ccc2c1 | 180 |
| Nc1c2c(nc3ccccc13)CCCC2N1CCOCC1 (stereo not given) | 215 to 217 |
| COc1cc(C)cc2nc(S(=O)(=O)Nc3c(Cl)cccc3Cl)nn12 | 269 to 270 |
| CCCCc1c(C(=O)O)[nH]c2c(Br)cccc2c1=O | 220 |
| N#CN=C(Nc1cnc(Cl)c(N)c1)NC1(c2ccccc2)CCC1 | 220 to 221 |
| CCC1COC(c2ccc(C#N)c(F)c2)OC1 (stereo not given) | 49 |
| CC(C)OC(C)c1nnc(N)s1 (stereo not given) | 129 to 135 |

| Structure (SMILES) | melting point [°C] |
| --- | --- |
| Cc1ccc2ccccc2c1Nc1ccccc1C(=O)O | 215 to 216 |
| Cc1ccccc1CC(=NC#N)NC(NC(=O)Cc1ccccc1)C(C)(C)C (stereo not given) | 182 to 183 |
| O=C(c1ccc(Cl)cc1)[C@H]1C[C@H]1C(=O)O (relative stereo) | 150 to 153 |
| COc1ccccc1C1(c2ccccc2OC)CC1 | 146 to 149 |
| CCOC(=O)COc1ccc2c(-c3ccccc3F)noc2c1Br | 130 to 131 |
| Cn1nc(C(F)(F)F)c(C=O)c1O | 116 to 118 |
| COc1ccc2c(c1)CCN1C(=O)C3=C(CC21)NCCC3 (stereo not given) | 202 to 205 |
| O=C(CNC(=O)OCc1ccccc1)NCCCCCCO | 104 to 105 |
| N=c1sc2cc(OC(F)(F)F)ccc2n1CC(N)=O | 228 |
| c1ccc(OCCSCc2nnc(-c3ccc(OCc4ccncc4)cc3)o2)cc1 | 80 to 90 |
| COc1ccnc(N2CCN(Cc3ccc(C(C)NC(C)=O)cc3)CC2)n1 (stereo not given) | 113 to 115 |
| O=C1Nc2ccsc2C(=O)N2CC[C@@H]12 | 274 |
| COc1cc(C(=O)NS(=O)(=O)c2ccccc2C)ccc1Cc1c(Cl)n(C)c2ccc(CCNC(=O)N(C)C)cc12 | 222 to 224 |
| O=C1NC(=O)C(CC(=O)N2CCN(c3cccc(CNC(=O)c4nc5ccccc5c(=O)[nH]4)c3)CC2)N1 (stereo not given) | 280 to 282 |
| COc1ccccc1-c1nc(-c2ccccc2)c2ncc(Cl)cc2n1 | 116 to 117 |
| CNC(=O)Nc1occ(C(C)(C)C)c1C#N | 163 |
| CC(C)C(=O)CCC(C)C1CCC2C3C=CC4=CC(=O)C5OC5C4(C)C3CCC12C (stereo not given) | 150 to 152 |
| CCOC(=O)c1cn(C2CCCCC2)c2cc(C#Cc3cc(Cc4cnc(N)nc4N)cc(OC)c3OC)ccc2c1=O | 228 to 230 |
| CCOC(=O)c1c(C)cc(-c2ccc(OC)c(OC)c2)cc1C | 91 to 92 |
| N#Cc1cc(F)c(O)nc1O | 135 to 140 |
| CCOC(=O)C1=C(CCl)NC(C)=C(C(=O)OC)C1c1cccc(C(F)(F)F)c1 (stereo not given) | 115 to 116 |
| COc1ccc(OCC(=O)CS(=O)(=O)C(c2ccc(Cl)cc2)c2ccc(Cl)cc2)cc1 | 116 to 117 |
| COc1ccnc(CSc2nc3cc(OC(F)(F)C(F)Cl)ccc3[nH]2)c1 (stereo not given) | 120 |
| Nc1oc2ccc([N+](=O)[O-])cc2c(=O)c1C=O | 228 to 229 |
| CCOC(=O)COc1ccc(OCc2ccccc2)cc1 | 65 to 68 |
| Cc1cc(C)nc([NH+]([O-])C(=O)Cc2cccs2)c1 (stereo not given) | 154 to 155 |

Next, values leading:

| melting point [°C] | Structure (SMILES) |
| --- | --- |
| 166 | COC(=O)[C@H](CCCCNC(=O)c1csc(NC(=O)NCc2ccccc2)n1)NC(=O)OC(C)(C)C |
| 172 | CCCCNC(=O)Nc1ccc(N(CCC)CCC)cc1C(=O)NCC1CCN(C(c2ccccc2)c2ccccc2)CC1 |
| 178 | COc1cc(-c2nc(NNC(=O)c3cc4c(C)c(C)ccc4n3CCCC#N)nn2CCC2CCCCC2)c(OC)cc1Cl |
| 117 to 120 | COC(=O)c1ccc(Cl)cc1NC(=O)CSc1nc2ccccc2s1 |
| 30 to 31 | Nc1ccccc1SC(F)(F)F |
| 234 to 235 | CC(=O)NC[C@H]1CN(c2ccc(C(=O)c3cnc4ccc(Cl)cn34)cc2)C(=O)O1 |
| 212 to 213 | O=C1C(=C2CC=Cc3ccccc32)CCCC1=C1CC=Cc2ccccc21 |
| 85 to 87 | COC(=O)CN(c1ccccc1)c1ccc(OC)cc1C(=O)OC |
| 160 to 162 | O=C(O)CCCc1ccc(C(NS(=O)(=O)c2ccc(Cl)cc2)C2CCCC2)cc1 (single isomer, unassigned; (-)) |
| 54 to 56 | COC1(OCCc2nc(C(C)C)c(Sc3cc(Cl)cc(Cl)c3)n2C)CCCCCCC1 |
| 206 | CCc1cc2ccccn2c1C(=O)c1cc(Cl)c(O)c(Cl)c1 |
| 153 to 154 | CC(C)OC(=O)C1=C2SCC(=CC(=O)Sc3ccccc3)N2CC1C (stereo not given) |
| 198 to 199 | CC(C)(O)CC1c2ccccc2C(=O)N1CC(=O)O (stereo not given) |
| 91 to 92 | CCCCC(CC(=O)O)c1cc(Cl)c(OC)cc1OC (stereo not given) |
| 112 to 113 | O=C1CCCc2cc(F)cc(Sc3ccccc3)c21 |
| 297 to 302 | O=c1[nH]c2cc(Br)c3c(c2[nH]c1=O)CN(Cc1ccccc1)CC3 |
| 136 to 138 | CCCc1nn(C)c2c(=O)n(CCCOc3ccc(OC(C)(C)C(=O)O)cc3)cnc12 |
| 101 to 106 | CCOC(=O)OC1CCC2(C)C3=C(CCC2C1)C1=CCC(C(C)CCCC(C)C)C1(C)CC3 (stereo not given) |
| 90 to 93 | CCN(CC)CCOC(=O)c1cc2cc(Br)ccc2nn1 |
| 160 to 162 | CN1CCC(C2c3cccc4c3N(CC4)c3ccccc3N2C(=O)OCC(Cl)(Cl)Cl)CC1 (stereo not given) |
| 112 | OCCOc1ccc2c(-c3ccccc3F)noc2c1Cl |
| 223 to 225 | Cc1cccc(C)c1-n1cc(C#N)c(=O)n(SC(Cl)(Cl)Cl)c1=O |
| 43 to 45 | CC1CC(=O)C(C(=O)CCC2CCCO2)C(=O)O1 (stereo not given) |
| 183 to 185 | Clc1ccc(Cn2cnc3c(-c4ccco4)ncnc32)cc1Cl |

| melting point [°C] | Structure (SMILES) |
| --- | --- |
| 115 to 117 | O=C(CCCN1CCCCC1)c1ccc2c(c1)Cc1cc(C(=O)CCCN3CCCCC3)ccc1O2 |
| 133 to 135 | CC(Oc1c(-c2ccc(S(C)(=O)=O)cc2)cnn(CC(F)(F)F)c1=O)c1ccc(F)cc1 (stereo not given) |
| 150 to 152 | COc1ccc2cc(-c3ncno3)ccc2n1 |
| 39 to 41 | COC(=O)COc1ccc(C=O)cc1 |
| 81 | CC1CCN(c2ccc([N+](=O)[O-])cc2C(=O)c2ccccc2)CC1 |
| 245 to 246 | Cc1c(S(=O)c2cc(Cl)c(Cl)cc2Cl)cc(C(C)(C)C)c(O)c1C(=O)Nc1ccc([N+](=O)[O-])cc1Cl (stereo not given) |
| 155 to 157 | O=C1c2ccccc2S(=O)(=O)N1CBr |
| 255 to 256 | CC1(C)OC(=O)Nc2ccc(-c3coc(C#N)c3)cc21 |
| > 200 | O=c1[nH]c2cc(F)ccc2c(=O)n1S(=O)(=O)c1ccc(Cl)cc1 |
| 214 to 215 | CC(C)c1nc(-c2ccc(S(C)(=O)=O)cc2)c(-c2ccc(F)cc2)[nH]1 |
| 190 to 192 | CC1=C(N2CCN(C(=O)Nc3ccc(Cl)cc3)CC2)C(=O)c2ccccc2C1=O |
| 136 to 140 | O=C1OCCC1Oc1ccc(Cl)cc1[N+](=O)[O-] (stereo not given) |
| 134 to 135 | COc1ccc([C@@H]2CN(C)CC[C@@H]2NC(=O)c2ccc(Cl)c(Cl)c2)cc1OC (relative stereo) |
| 282 | O=c1[nH]c2cc(Cl)cc(Cl)c2c(O)c1Sc1ccc(NC(=S)NCc2ccccc2)cc1 |
| > 250 | CNC(=O)Cn1c(-c2ccc(C)cc2)nc2ccc(Cl)nc21 |
| 98 to 100 | CS(=O)(=O)Nc1cc2occ(N(C=O)CC(=O)O)c(=O)c2cc1Oc1ccccc1 |
| 131 to 132 | CCOC(=O)C1CCc2[nH]c3ccc(OC(F)(F)F)cc3c2C1 (stereo not given) |
| 96 to 98 | O=C(CCCCO)NCC1Cc2ccccc2Cc2ccccc21 (stereo not given) |
| 218 to 220 | CC(C)(C)CN1C(=O)[C@@H](CC(=O)Nc2cccc(-c3nnn[nH]3)c2)O[C@H](c2ccccc2Cl)c2cc(Cl)ccc21 (relative stereo) |
| 160 to 162 | CNc1ccc(C#Cc2cncc(-c3nc(NC)nc4cc(OC)c(OC)cc34)c2)cn1 |
| 128 to 129 | CC(C)(C)OC(=O)N1CCCC(O)(C#Cc2cccc(Cl)c2)C1 (stereo not given) |
| 176 | Cc1cc(Cl)cc(C(=O)Nc2nc(C)cs2)n1 |
| 166 | O=C1CN2C(=O)N(c3cc(Cl)nc(Cl)c3)C(=O)[C@@]2(Cc2ccc(OC(F)(F)F)cc2)C1 |

From a melting point compilation (Tetko et al.; mined from patent text by program, amines drawn as free bases though some values may be those of a salt)
